The values that follow come from patent US8030547B2, “Gene coding for acetolactate synthase” (priority 2002, dated 2011).

Assay [1] has as its target T1, mutant ALS protein of Rb line (Oryza sativa subsp. japonica, UniProt Q6K2E8, P171H, form not given).
T1 construct: other: partially purified ALS, 30° C., probit analysis
The experiment in a line: Herbicide sensitivity of partially purified ALS protein (ALS activity inhibition), Rb line. The format is biochemical, Oryza sativa var. Kinmaze. The following applies: read-out: I50 (nM) Rb; partially purified ALS, 30° C., probit analysis. As to the method: (§1) First, 200 g or more of resistant mutant was prepared by a liquid culture method (no supplementation with bispyribac-sodium), using a composition as shown in Table 3 excluding Gelrite. Then, about 150 g of the resistant mutant was homogenized using Hiscotron in a volume of buffer-1 [100 mM potassium phosphate buffer (pH 7.5) containing 20% (v/v) glycerol, […] thiamin pyrophosphate (TPP), 10 μM flavin adenine dinucleotide (FAD), 0.5 mM MgCl2, and a volume of polyvinyl polypyrrolidone one-tenth that of tissue volume] 3-fold greater than tissue volume. The homogenate was filtered through nylon gauze, and then centrifuged at 15000×g for 20 minutes. Ammonium sulfate was added to the centrifuged supernatant to 50% saturation, and then allowed to stand in ice for approximately 1 hour. The mixture was again centrifuged at 15000×g for 20 minutes, and then the precipitated fraction was dissolved in approximately 30 ml of buffer-2 [10 mM Tris hydrochloric acid buffer (pH 7.5) containing 20% (v/v) glycerol, 0.5 mM TPP and 0.5 mM MgCl2]. The mixture was again centrifuged at 15000×g for 20 minutes, and then the supernatant fraction was applied to a Sephadex G-25 (Amersham Bioscience). About 40 ml of the fraction that had passed through the column was collected as a crude enzyme solution.
(§2) Next, the protein concentration of the crude enzyme solution was measured by the Bradford method according to the manual of Bio-Rad Protein Assay. The crude enzyme solution was then filtered through a Whatman filter (Whatman), and then the crude enzyme solution in an appropriate protein amount (10 to 15 ml) was applied to three vertically-connected HiTrap Q columns (Amersham Bioscience) using a FPLC device (Amersham Bioscience). After protein component was adsorbed using HiTrap Q, unadsorbed fractions were washed out using buffer-2 having a volume 3 to 5 fold greater than the bed volume. Then, the adsorbed protein component was eluted using an eluate having a volume 10 fold greater than the bed volume (150 ml). Here, the eluate was prepared by dissolving KCl with a linear concentration gradient (0 to 0.4 M) into buffer-2. The eluate containing the eluted protein component was apportioned, 5 ml each, into a plurality of test tubes for apportioning. Further, to stabilize ALS protein contained in the eluted protein component, 0.5 ml of buffer-2 containing 20 mM sodium pyruvate had been previously added to each test tube for apportioning.
(§3) ALS activity resulting from the mutant ALS protein contained in the eluted fractions apportioned into each test tube for apportioning was measured as follows. A reaction solution to be used in a measurement reaction was prepared by mixing an eluted fraction to be measured with a solution comprising 20 mM sodium pyruvate, 0.5 mM TPP, 0.5 mM MgCl2, 10 μM FAD and 20 mM potassium phosphate buffer (pH 7.5). One ml of this reaction solution was used. After the eluted fraction to be measured was added, the measurement reaction was performed at 30° C. for 40 to 60 minutes. Then, the reaction was stopped by addition of 0.1 ml of 6N sulfuric acid (or 0.25 N sodium hydroxide).
(§4) After the reaction was stopped, the reaction solution was incubated at 60° C. for 10 minutes, thereby converting acetolactate contained in the reaction solution to acetoin.
(§5) Then, to quantify acetoin contained in the reaction solution, 1 ml of 0.5% (w/v) creatine and 1 ml of 5% (w/v) α-naphthol dissolved in 2.5 N sodium hydroxide was added to the reaction solution, followed by incubation at 37° C. for 10 minutes. Acetoin was then quantified by color comparison of the absorbance (at 525 nm) of the reaction solution, thereby evaluating ALS activity. In addition, since the reaction solution contained a small amount of sodium pyruvate, reaction time 0 was used as control.
(§6) Using the enzyme solution containing the mutant ALS protein, sensitivity of the mutant ALS protein to bispyribac-sodium, chlorsulfuron and imazaquin was examined. […]

Assay [2] deals with mutant ALS protein of Rb line. The assay is described as above. The format is biochemical, Oryza sativa var. Kinmaze. The following applies: I50 of the resistant mutant divided by I50 of the wild type. As to the method:
as §1, §2, §3, §4, §5, §6

The target in assay [3] is T2, GST fusion P171H mutant ALS protein (Oryza sativa subsp. japonica, UniProt Q6K2E8, P171H).
T2 construct: an expression vector having the full-length wild type ALS cDNA incorporated into the Eco RI site of pGEX-2T; made in house; host or cells: E. coli JM109, pGEX-2T(ALS P171H mutant); crude supernatant
The experiment in a line: Herbicide sensitivity of ALS protein expressed in E. coli (crude enzyme solution), P171H. The following applies: for RS ratio: P171H mutant vs wild type. The format is biochemical, rice (Oryza sativa var. Kinmaze). As to the method:
as §3, §4, §5
E. coli transformed with pGEX-2T(ALS-wild) constructed in Example 3(5), E. coli transformed with pGEX-2T(ALS-W548L mutant) constructed in Example 5, E. coli transformed with pGEX-2T(ALS-S627I mutant) constructed in Example 5, E. coli transformed with pGEX-2T(ALS P171H mutant) constructed in Example 6, E. coli transformed with pGEX-2T(ALS R172S mutant) constructed in Example 6, E. coli transformed with pGEX-2T(ALS P171H, R172S mutant) constructed in Example 7, E. coli transformed with pGEX-2T(ALS-P171H, W548L mutant) constructed in Example 8, E. coli transformed with pGEX-2T(ALS-P171H, S627I mutant) constructed in Example 8, and E. coli transformed with pGEX-2T(ALS-P171H, W548L, S627I mutant) constructed in Example 9 were respectively shake-cultured (pre-culture) at 27° C. in 2 ml of LB liquid medium containing ampicillin. These types of E. coli were respectively cultured in 250 ml of LB liquid medium containing ampicillin using 1 ml of the pre-culture solution. After culturing overnight, 1 mM IPTG was added to the media, and then culturing was performed for a further 3 to 4 hours, so that the expression of GST fusion protein was induced. In addition, the cells were stored at −80° C. after washing.
Preparation and purification of ALS from E. coli were performed by the following method. First, the pellet of the transformant E. coli stored at −80° C. was suspended in ALS extraction buffer (potassium phosphate buffer (pH 7.5) containing 30% glycerol and 0.5 mM MgCl2). Specifically, 2.5 ml of the buffer was added to the pellet obtained from 50 ml of the culture solution. The suspension was subjected to ultrasonication (Heat Systems-Ultrasonics, Sonicator W-225R, micro chip, output control 8, interval of approximately 1 second, twice (40 seconds each)), and subjected to centrifugation at 15000×g, 4° C. for 20 minutes, thereby obtaining the supernatant as a crude enzyme solution.
Herbicide sensitivity of the wild type ALS protein and that of mutant ALS protein were examined using the 9 types of crude enzyme solutions obtained in Example 10. Herbicide sensitivity test was performed according to procedures almost the same as those in Example 2. However, in this example, reaction temperature was 37° C., reaction time was 30 minutes, and 10 mM valine was added to the reaction solution to inhibit ALS activity derived from E. coli. Further, three types of herbicides, bispyribac-sodium, pyrithiobac-sodium, and pyriminobac, were used as PC herbicides; chlorsulfuron was used as a sulfonylurea herbicide; and imazaquin was used as an imidazolinon herbicide. […]

T2 sequence (Q6K2E8 44-644 P171H): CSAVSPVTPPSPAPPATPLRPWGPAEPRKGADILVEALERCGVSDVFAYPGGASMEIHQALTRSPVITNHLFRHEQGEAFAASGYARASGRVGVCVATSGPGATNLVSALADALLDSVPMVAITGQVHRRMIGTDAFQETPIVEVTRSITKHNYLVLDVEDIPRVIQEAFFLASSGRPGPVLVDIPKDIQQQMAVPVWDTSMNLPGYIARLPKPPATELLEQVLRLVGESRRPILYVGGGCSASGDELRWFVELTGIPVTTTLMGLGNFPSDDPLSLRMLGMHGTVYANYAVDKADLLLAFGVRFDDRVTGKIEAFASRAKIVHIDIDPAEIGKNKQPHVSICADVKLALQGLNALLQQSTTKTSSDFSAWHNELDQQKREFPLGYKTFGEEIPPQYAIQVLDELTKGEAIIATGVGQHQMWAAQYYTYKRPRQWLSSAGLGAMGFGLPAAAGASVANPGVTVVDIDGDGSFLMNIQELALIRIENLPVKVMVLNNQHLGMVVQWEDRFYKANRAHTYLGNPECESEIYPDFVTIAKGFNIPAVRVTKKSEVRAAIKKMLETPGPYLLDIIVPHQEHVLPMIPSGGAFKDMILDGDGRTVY
T1 sequence (Q6K2E8 whole entry P171H/W548L, form open): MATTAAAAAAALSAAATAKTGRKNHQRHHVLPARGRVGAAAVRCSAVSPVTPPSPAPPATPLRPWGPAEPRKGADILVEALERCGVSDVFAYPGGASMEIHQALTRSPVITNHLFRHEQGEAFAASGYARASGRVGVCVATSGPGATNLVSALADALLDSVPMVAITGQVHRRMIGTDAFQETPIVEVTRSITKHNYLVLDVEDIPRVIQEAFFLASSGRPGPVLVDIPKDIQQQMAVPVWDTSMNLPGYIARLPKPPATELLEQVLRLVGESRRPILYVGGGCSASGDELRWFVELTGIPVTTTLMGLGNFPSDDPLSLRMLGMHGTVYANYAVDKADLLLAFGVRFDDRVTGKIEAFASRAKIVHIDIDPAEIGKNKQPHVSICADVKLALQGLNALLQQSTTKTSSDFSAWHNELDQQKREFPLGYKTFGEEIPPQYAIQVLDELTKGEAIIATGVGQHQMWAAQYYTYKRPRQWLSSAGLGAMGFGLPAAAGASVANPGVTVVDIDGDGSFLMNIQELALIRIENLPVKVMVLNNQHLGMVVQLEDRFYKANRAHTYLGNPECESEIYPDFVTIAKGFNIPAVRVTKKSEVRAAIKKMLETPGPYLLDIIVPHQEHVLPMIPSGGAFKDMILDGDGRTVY

With `CC(C)C1(C)N=C(c2nc3ccccc3cc2C(=O)O)NC1=O` (stereo not drawn) [imazaquin], the IC50 in assay [1] turned out to be 609000 nM; in assay [3], 3400 nM. Also, the “RS ratio Rb” value in assay [2] is recorded as 411. In assay [3], the RS ratio is 1.5.
`COc1nc(C)nc(NC(=O)NS(=O)(=O)c2ccccc2Cl)n1` [chlorsulfuron]: the IC50 in assay [1] came out at 32000 nM. Besides, the “RS ratio Rb” value in assay [2] is listed as 1850. In assay [3], the IC50 stood at 1100 nM and the RS ratio is 85.
Turning to `COc1cc(OC)nc(Oc2cccc(Oc3nc(OC)cc(OC)n3)c2C(=O)O)n1` [bispyribac-sodium], the IC50 in assay [1] amounted to 247000 nM. In addition, the “RS ratio Rb” value in assay [2] is given as 43900. In assay [3], the IC50 was found to be 55 nM and the RS ratio worked out at 8.7.
